Source: patent US6723897B2, “Methods for controlling gibberellin levels” (Monsanto Technology, LLC, priority 1998, dated 2004)

system: GA-deficient (Line 719, R5) soybeans; experiment: Hilum treatment with GA15, GA19, GA24, GA44, hypocotyl length, GA-deficient soybean; format: in vivo, Glycine max; conditions: 10 μg/seed, 5 DAP
Description: Transgenic seeds are fifth generation (R5) line 719 seeds.

Row | Molecule | hypocotyl height of GA-deficient (Line 719) soybeans (FIG. 41)
1 | C=C1C[C@]23C[C@H]1CC[C@H]2[C@]1(C=O)CCC[C@@](C)(C(=O)O)[C@H]1[C@@H]3C(=O)O [GA24] | restored normal or greater hypocotyl height
2 | C=C1C[C@]23C[C@@]1(O)CC[C@H]2[C@@]12CCC[C@@](C)(C(=O)OC1)[C@H]2[C@@H]3C(=O)O [GA44] | restored normal or greater hypocotyl height
3 | GA15 | restored normal or greater hypocotyl height
